Patent publication US9307761B2, “Microbial composition” (Rohm and Haas Company, priority 2011, dated 2016)

Key:
Format in all cases: cell-based
[1] = test system: Escherichia coli (10536 strain); test: 15 seconds contact kill assay of actives in water, mean bacterial survival NMBS; conditions: E. coli; for NMBS: alone, 15 seconds contact
[2] = test system: Escherichia coli (E. coli—ATCC #10536); test: Automated assessment of efficacy in model surfactant medium (2.85% sodium cocoyl glycinate and 1.85% sodium lauroamphoacetate), 15 seconds exposure, delta OD450/OD590; conditions: for No. of replicates showing growth (out of 4) / Δ OD 450 nm = OD450 (time = 16 hours) − OD450 (time zero), Mean / Δ OD 590 nm OD590 (time = 16 hours) − OD590 (time zero), Mean: 15 s exposure
Experimental: Micobiocidal Activity of Actives as Per the Invention in a Model Surfactant Medium Test Methodology for Automated Assessment of Efficacy in Surfactant Base
Solutions were prepared such that the concentrations of the surfactant components and test actives were 1.1×the final desired concentration in order to allow for dilution with the bacterial inoculum in the test. The solutions were manually adjusted to […] by dropwise addition of sodium hydroxide solution, as measured with a pH meter at ambient temperature.
Tests were conducted using standard microtiter plate assays using an automated liquid handling system, 270 μl of the surfactant test solution was pipetted into each well of the microtitre plate and 30 μl of the bacterial suspension was then added. After exactly 15 seconds of bacterial exposure, a 30 μl volume of bacterial cells was withdrawn and transferred to 270 μl of D/E quench solution. After 5 minutes in the D/E quench, the optical density (OD) was measured for each plate in turn at two specific wavelengths (450 nm and 590 nm). These provide a dual check of antimicrobial activity, as the OD450 reading is specific for the yellow colour of D/E quench when bacterial growth is observed, whereas OD590 is specific for the initial purple colour of the D/E quench which is retained if no bacterial growth is observed. After the time zero OD measurements, plates were then incubated at 37° C. overnight (16 hours) before repeating the OD measurements. Delta OD values were calculated by subtracting […]. Bacterial growth is observed as art increase in OD450 and a decrease in ΔOD590. To identify antibacterially efficacious systems (those preventing appreciable bacterial growth after incubation), the following threshold changes in OD readings have been adopted: if (1). OD450 increases by less than 0.2 absorbance unit on incubation and (2). OD590 decreases by less than 0.35 unit on incubation. Conversely, where OD450 increases by more than 0.2 AU and OD590 decreases by more than 0.35 unit after incubation, corresponding to a colour shift from purple to yellow, the test system allows bacterial growth and is not deemed efficacious, four replicate measurements in the same plate have been made for each test system. The number of replicate wells showing either bacterial growth or no growth is also readily assessed by eye by following the colour change.
Dose responses for individual components and binary mixtures of actives at a fixed concentration ratio were generated by sequential dilution of liquors with further surfactant solution to obtain a series of endpoints.
In some selected cases, the combinations were also tested at the weight ratio 1:1.

[3] = test system: Staphylococcus aureus (10788 strain); test: Antimicrobial efficacy of actives against S. aureus in water, 15 seconds contact; conditions: for MBC (minimum biocidal concentration): against S. Aureus, in water; for NMBS: S. aureus
S. aureus = test: Synergy of terpinyl alcohols with phenolic compounds in water against S. aureus, log reduction after 15 seconds contact
Experimental: The procedure used was as follows:
Liquid actives were used directly. Solid actives were dissolved in alcohol and a 50% stock was made.
Preparation of Test Cultures:
The culture was grown overnight in Tryptone soya agar.
To 9 ml water the actives were added to give the desired concentration. 1 ml of the culture was added and mixed. After 15 seconds contact 1 ml aliquot was removed and added to a neutraliser and kept for 5 minutes. A control of untreated cells was similarly processed. It was then diluted and plated. The plates were incubated at 37° C. for 24 hours. The colonies on the plates were counted. The counts were converted to log10. The log no. of survivors was determined and log reduction calculated.

[4] = test system: Escherichia coli (E. coli—ATCC #10536); test: Synergy tests: high resolution MBC microtiter plate assay, 15 seconds contact, phosphate buffer containing […] dipropylene glycol; conditions: E. coli 10536; at Qa and Qb; <1 synergy, 1 additivity, >1 antagonism
Excerpt: The concentrations and ratios may also vary under different test conditions or with different test methods.
One measure of synergy is the industrially accepted method described by Kull, F. C.; Eisman, P. C.; Sylwestrowicz, H. D. and Mayer, R. L., in Applied Microbiology 9:538-541 (1961), using the ratio determined by the formula: Qa/QA+Qb/QB=Synergy Index (“SI”) wherein: • QA=concentration of compound A (first component) in percent, acting alone, which produced an end point (MBC of Compound A). • Qa=concentration of compound A in percent, in the mixture, which produced an end point. • QB=concentration of compound B (second component) in percent, acting alone, which produced an end point (MBC of Compound B). • Qb=concentration of compound B in percent, in the mixture, which produced an end point.
When the sum of Qa/QA and Qb/QB is greater than one, antagonism is indicated. […] The lower the SI, the greater is the synergy shown by that particular mixture. The minimum biocidal concentration (MBC) of a microbicide is the lowest concentration tested under a specific set of conditions that provides complete kill of the tested microorganisms.
Synergy tests were conducted using standard microtiter plate assays with phosphate buffer containing 3.5% dipropylene glycol (DPG). In this method, a wide range of combinations of chemicals was tested by conducting high resolution MBC assays of Component (A) in the presence of various concentrations of Component (B). High resolution MBCs were determined by adding varying amounts of microbicide to one column of a microtiter plate and doing subsequent […] dilutions using an automated liquid handling system to obtain a series of closely spaced endpoints. The MBC plate was inoculated one column at a time with the test microorganism. An aliquot of the inoculated well was transferred at 15 seconds to a plate containing a neutralizing agent (D/E Neutralizing Broth), mixed and held for 5 minutes before being transferred to a growth plate containing trypticase soy broth (TSB). The TSB plate was incubated at 37° C. and read for the presence/absence of growth at 24 hours. The lowest level tested that provided complete kill (as evidenced by no growth in the microtitre plate) of the test organisms in 15 seconds is the minimum biocidal concentration (MBC).
The synergy of the combinations of the present invention was determined against a bacterium, Escherichia coli (E. coli—ATCC #10536), at a concentration of approximately 1×10^8 bacteria, per mL. This microorganism is representative of natural contaminants in many consumer and industrial applications.

[5] = single active alone at 0.05% w/v, model surfactant solution
[6] = single active alone at 0.1% w/v, model surfactant solution
[7] = single active alone at […] w/v, model surfactant solution
[8] = single active alone at 0.125% w/v, water

CCCc1ccccc1O [2-n-propylphenol] was tested, and the NMBS ([1]; 0.05% w/v) was 7.71 log CFU/ml, the NMBS ([1]; 0.125% w/v) was 0 log CFU/ml and the “MBC (minimum biocidal concentration)” value ([1]; in water, component alone) was 0.125 % w/v. For the same compound, the NMBS ([1]; […] w/v) was 0 log CFU/ml, the “No. of replicates showing growth (out of 4)” value [2, 5] was 4 and the “Δ OD 450 nm = OD450 (time = 16 hours) − OD450 (time zero), Mean” value (from here on “Δ OD 450 nm = OD450”) [2, 5] was −1.43. The “Δ OD 590 nm OD590 (time = 16 hours) − OD590 (time zero), Mean” value (“Δ OD 590 nm OD590” below) [2, 5] was 0.46, the “No. of replicates showing growth (out of 4)” value [2, 6] was 4 and the “Δ OD 450 nm = OD450” value [2, 6] was −1.42. For the same compound, the “Δ OD 590 nm OD590” value [2, 6] was 0.46, the “No. of replicates showing growth (out of 4)” value [2, 7] was 4 and the “Δ OD 450 nm = OD450” value [2, 7] was −1.15. For the same compound, the “Δ OD 590 nm OD590” value [2, 7] was 0.66, the “MBC (minimum biocidal concentration)” value [3] was 0.25 % w/v and the MBC of phenol ([3]; phenol alone, complete bacterial kill against S. aureus, water) was 0.25 % (w/v). The NMBS ([3]; single active alone at 0.1% w/v, water) was 7.30 log CFU/ml, the NMBS [3, 8] was 7.19 log CFU/ml and the NMBS ([3]; single active alone at […] w/v, water) was 0 log CFU/ml.

With CCC(C)c1ccc(O)cc1 (centres unmarked) [4-sec butyl phenol] the “Log reduction S. aureus ATCC 6538” value (S. aureus; phenolic compound alone at 0.05%) was 0.0.

In the case of C=C(C)[C@@H]1CC=C(CO)CC1 [(4S)-(4-(prop-1-en-2-yl)cyclohex-1-enyl)methanol], the “SI (Synergy Index = Qa/QA + Qb/QB)” value [4] is reported as 1.00, the MBC ([2]; Escherichia coli, ATCC10536, 15 s, in 2.85% sodium cocoyl glycinate + 1.85% sodium lauroamphoacetate solution at pH 10, E. coli, read-out: MBC (minimum biocidal concentration)) is reported as 4000 µg/mL and the “MBC of terpene alcohol” value ([2]; terpene alcohol alone, complete bacterial kill against E. coli, model surfactant solution) is reported as 0.4 % (w/v). The “MBC (minimum biocidal concentration)” value [3] was over 1.0 % w/v, the NMBS [3, 8] was 7.19 log CFU/ml and the NMBS ([3]; single active alone at 0.4% w/v, water) was 7.14 log CFU/ml. For the same compound, the NMBS ([3]; single active alone at 0.625% w/v, water) was 7.15 log CFU/ml, the NMBS ([3]; single active alone at 1.0% w/v, water) was 7.39 log CFU/ml and the “MBC of terpene alcohol” value ([3]; terpene alcohol alone, complete bacterial kill against S. aureus, water) was 1.0 % (w/v).

In the case of C=C(C)[C@@H]1CC=C(CO)CC1 [perillyl alcohol], the “Log reduction S. aureus ATCC 6538” value (S. aureus; terpinyl alcohol alone at […]) is reported as −0.6.
